# Reference: patent US6391339B1, “Use of oligosaccharide for preventing blood clotting in extracorporeal blood circuits” (Akzo Nobel N.V., priority 1997, dated 2002)
# Tested on: patients undergoing chronic intermittent haemodialysis
# Conditions: 12 haemodialysis patients; half an hour before the end of the last dialysis
# Procedure: The study consisted of 2 phases (block A and block B). In block A, 10 mg of Org 31540/SR 90107 A was administered. Thereafter, in block B, 8, 6, and 4 mg of Org 31540/SR 90107 A were used.
# Medication was given as an intravenous bolus predialysis for 1 dialysis each week. Efficacy was assessed by determining patency of the dialyzer, buffer and bubble chamber, every hour during dialysis by visual examination and by blood sampling of specific coagualtion, heamatologic and biochemical parameters. Anti-Xa plasma samples, to determine pharmacokinetics, were taken every hour during dialysis and 1 hour after dialysis and daily for 3 days post-dialysis. Safety was assessed by evaluating major and minor bleeding complications each dialysis.
smiles,measurement,value
"CO[C@H]1O[C@H](COS(=O)(=O)O)[C@@H](O[C@@H]2O[C@@H](C(=O)O)[C@@H](O[C@H]3O[C@H](COS(=O)(=O)O)[C@@H](O[C@@H]4O[C@H](C(=O)O)[C@@H](O[C@H]5O[C@H](COS(=O)(=O)O)[C@@H](O)[C@H](O)[C@H]5NS(=O)(=O)O)[C@H](O)[C@H]4O)[C@H](OS(=O)(=O)O)[C@H]3NS(=O)(=O)O)[C@H](O)[C@H]2OS(=O)(=O)O)[C@H](O)[C@H]1NS(=O)(=O)O [Org 31540/SR 90107 A, methyl O—(2-deoxy-2-sulphoamino-6-O-suplho-α-D-glucopyranosyl)-(1→4)—O—(β-D-glucopyranosyluronic acid)-(1→4)—O—(2-deoxy-2-sulphoamino-3,6-di-O-sulpho-α-D-glucopyranosyl)-(1→4)—O—(2-O-sulpho-α-L-idopyranosyluronic acid)-(1→4)-2-deoxy-2-sulphoamino-6-O-sulpho-α-D-glucopyranoside]",clot in the buffer chamber making dialysis impossible,Only in one patient
